According to ChEMBL document CHEMBL3351854, “A comprehensive review on synthetic approach for antimalarial agents” (Eur J Med Chem, 2014):
One block for each compound: values may come before it.

Legend:
[1] = test system: Plasmodium falciparum; assay: Antimalarial activity Plasmodium falciparum NF54; format: functional, organism-based
[2] = test system: Plasmodium yoelii nigeriensis; assay: Antimalarial activity against multidrug-resistant Plasmodium yoelii nigeriensis infected mouse assessed as protection at 24 mg/kg for 4 days; format: functional
[3] = test system: Plasmodium yoelii nigeriensis; assay: Antimalarial activity against multidrug-resistant Plasmodium yoelii nigeriensis infected mouse assessed as protection at 12 mg/kg for 4 days; format: functional
[4] = test system: Plasmodium falciparum; assay: Antimalarial activity against Plasmodium falciparum by Heme-HRP assay; format: functional, organism-based
[5] = test system: Plasmodium falciparum; assay: Antimalarial activity against Plasmodium falciparum by culture assay; format: functional, organism-based

Compound: CCOC(=O)CC1CCC2(OCCCC2CC(=O)OCC)OO1 (stereo not given)
- IC50 [1]: 160 nM

Compound: C[C@@H]1[C@H]2CC[C@@H](C)[C@@H]3CC[C@]4(C)OO[C@@]23[C@H](C[C@H]1OC(=O)C1c2ccccc2-c2ccccc21)O4
- Activity [2]: 100%
- Activity [3]: 80%

- IC50 [4]: 60000 nM
- IC50 [5]: 48 nM
Compound: Fc1ccc(CNCCOCCOCCNc2ccnc3cc(Cl)ccc23)c(F)c1
